Holding throughout (experiment): growth of human tumour cells (NCI), 48 h
For assay [1], the system named is COLO 205 colon.
For assay [2], the system named is HCT-116 colon.
Assay [3] deals with K-562 leukemia.
In assay [4] the test system is KM12 colon.
Assay [5] deals with M14 melanoma.
Assay [6] concerns MOLT-4 leukemia.
In assay [7] the test system is SF-268 CNS.
Assay [8] relates to SF-295 CNS.
For assay [9], the system named is UACC-62 melanoma.
Assay [10] has as its system CAKI-1 renal.

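Values below derive from 48-hour exposures of cells grown in 96-well plates, with endpoints linearly interpolated between the two concentrations bracketing the appropriate inhibition level. Here, GI50 denotes the concentration required for 50% inhibition of growth. The concentration for full growth arrest is given as TGI.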

In the case of `[O-]c1c2c(nn1-c1ccccc1)c1ccccc1c[n+]2Cc1ccccc1`, the TGI in [1], in [2], in [3], in assay [4], in assay [5] and in assay [6] was > 100 µM each time. Moreover, the TGI in [7], in assay [8] and in assay [9] was > 100 µM each time.
With `Cc1ccc(NC(=O)CCC(CC(=O)C(C)(C)C)=NNC(=O)C(=O)NN)cc1C`, the TGI in assay [10], in assay [1], in assay [3], in assay [4], in assay [5] and in assay [6] was > 100 µM each time. For the same compound, the TGI in assay [7], in assay [8] and in assay [9] was > 100 µM throughout.
As to `O=S(=O)(O)O.[NH-]C1CCCCC1[NH-].[Pt+2]` (stereo unspecified), the GI50 in assay [1] is > 100 µM; in assay [2], 43.4 µM; in [3], 37 µM; in assay [4], > 100 µM; in [5], > 100 µM; in assay [6], 8.95 µM. Also, the GI50 in [7], in [8] and in [9] was > 100 µM throughout. The TGI in assay [1], in [2], in [3], in assay [4], in assay [5] and in [6] was > 100 µM in each case. Moreover, the TGI in [7], in assay [8] and in [9] was > 100 µM each time.
For `O=c1/c(=C/c2cccc([N+](=O)[O-])c2)sc2nc3ccccc3n12`, the TGI in [2], in assay [3], in assay [4], in assay [5], in assay [7] and in assay [9] was > 100 µM each time.
As for `COC(=O)C1=C2CCC(=O)[C@@]2(C)C(OC(C)=O)C=CC1` (stereo partly specified), the TGI in [10] was > 100 µM; in [2], 69.6 µM; in assay [3], > 100 µM; in assay [4], > 100 µM; in [5] it was > 100 µM; in assay [6] it was > 100 µM. The TGI in assay [8] and in [9] was > 100 µM each time.
Take `Cc1cc(N2CCCCC2)nc(N(CCCNc2ccnc3cc(Cl)ccc23)Cc2ccco2)n1`: the GI50 in assay [1] was 1.67 µM; in [2], 1.15 µM; in assay [3], 1.38 µM; in assay [4], 2.82 µM; in assay [5], 1.64 µM; in [6], 2.45 µM. Further, the GI50 in assay [7] was 2.86 µM; in assay [8], 1.29 µM; in assay [9] it was 1.89 µM. In addition, the TGI in assay [1] is 3.53 µM; in [2], 3.28 µM; in assay [3], 5.37 µM; in assay [4], 11.1 µM; in assay [5], 3.4 µM; in assay [6], 7.18 µM. Also, the TGI is 11.9 µM in assay [7], 3.59 µM in [8] and 3.73 µM in assay [9].
As to `CN(C)c1ccc(N2Cc3ccccc3OC3=C2C(=O)c2c(O)ccc(O)c2C3=O)cn1`, the GI50 in assay [1] was 0.174 µM; in assay [2], 0.124 µM; in [3], 0.177 µM; in [4], 1.03 µM; in assay [5] it was 0.241 µM; in [6], 0.112 µM. The GI50 in assay [7] is 0.37 µM; in [8], 1.8 µM; in assay [9] it was 0.211 µM. The TGI was found to be 0.38 µM in assay [1]; 0.288 µM in assay [2]; 1.58 µM in assay [3]; 3.08 µM in assay [4]; 0.713 µM in assay [5]; 0.843 µM in assay [6]. For the same compound, the TGI in assay [7] stood at 1.59 µM; in [8] it was 4.32 µM; in [9], 0.638 µM.
Turning to `C[C@@H]1CN(C(=O)c2ccc(NC(=O)c3cc(O[C@H](C)c4c(Cl)ccc(F)c4Cl)c(N)nn3)cc2)C[C@H](C)N1`, the GI50 was 1.46 µM in assay [2]; 0.37 µM in [3]; 0.0558 µM in assay [4]; 1.55 µM in assay [5]; 0.907 µM in assay [6]; 4.5 µM in assay [7]. Further, the GI50 is 1.11 µM in assay [8] and 1.7 µM in assay [9]. The TGI was 10.7 µM in assay [2]; 10.2 µM in assay [3]; 13.5 µM in assay [4]; 3.19 µM in assay [5]; 10.4 µM in assay [6]; 17.7 µM in assay [7]. In addition, the TGI in [8] amounted to 10.5 µM; in assay [9], 5.24 µM.
`C=CCCC(OCOCCOC)c1cc(C)c(O[Si](C)(C)C(C)(C)C)c(C)c1` (stereo unspecified): the TGI in [1] is 32.9 µM; in assay [3], 26.2 µM; in assay [4] it was 29.3 µM; in assay [5], > 100 µM; in [6], 19.4 µM; in [7] it was 34.1 µM. Besides, the TGI amounted to 31.8 µM in assay [8] and 38.1 µM in assay [9].
On to `CC1(C)COC(C23C4C5C2C2C3C4C52I)=N1` (stereo unspecified), for which the TGI in [10], in assay [1], in assay [3], in assay [5], in [6] and in assay [7] was > 100 µM throughout. Further, the TGI in [8] and in assay [9] was > 100 µM in each case.
As to `Nc1nc(N)c(N=O)c(Nc2ccc(O)cc2)n1`, the TGI in assay [10] is > 76.3 µM; in assay [1] it was > 100 µM; in assay [2], > 100 µM; in [3] it was > 92.1 µM; in assay [4], > 100 µM; in assay [6] it was > 60.9 µM. The results for the TGI in assay [7], in [8] and in [9] were > 83.8 µM, > 65.1 µM and > 100 µM, respectively.
As to `C/C(=C\C(C)COCc1ccccc1)[C@H](COCc1ccccc1)OCc1ccccc1` (stereo partly specified), the TGI in assay [1], in assay [2], in [3], in [4], in [5] and in assay [6] was > 100 µM in each case. Besides, the TGI in [7], in assay [8] and in assay [9] was > 100 µM throughout.

The record behind these values is PubChem BioAssay (NCI).
